The target in one test is T1, IRAK1 (Homo sapiens, UniProt P51617).
T1 construct: His-TEV-IRAK1 (194-712); His (N); TEV cleavage site (N)
Kind of test: IRAK1 enzymatic assay (ADP-Glo luminescence). It is filed as biochemical. The note with it: purified human recombinant His-TEV-IRAK1 (194-712). An outline of the steps: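 Recombinant human His-TEV-IRAK1 (194-712), 0.3 μg/ml, preincubated 15 min at RT with compounds (10 μM to 0.5 nM) in 50 mM Hepes pH 7.0, 10 mM MgCl2, 2 mM DTT, 0.1% BSA. ATP-started reaction run 2 hours at RT; ADP formed from ATP hydrolysis/autophosphorylation read by ADP-Glo luminescence.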
(In general: ADP-Glo first removes unused ATP, then detects ADP through luciferase.)

A further test has as its target T2, IRAK4 (Homo sapiens, UniProt Q9NWZ3).
T2 construct: His-TEV-IRAK4 (1-460); His (N); TEV cleavage site (N)
T2 sequence (Q9NWZ3 1-460): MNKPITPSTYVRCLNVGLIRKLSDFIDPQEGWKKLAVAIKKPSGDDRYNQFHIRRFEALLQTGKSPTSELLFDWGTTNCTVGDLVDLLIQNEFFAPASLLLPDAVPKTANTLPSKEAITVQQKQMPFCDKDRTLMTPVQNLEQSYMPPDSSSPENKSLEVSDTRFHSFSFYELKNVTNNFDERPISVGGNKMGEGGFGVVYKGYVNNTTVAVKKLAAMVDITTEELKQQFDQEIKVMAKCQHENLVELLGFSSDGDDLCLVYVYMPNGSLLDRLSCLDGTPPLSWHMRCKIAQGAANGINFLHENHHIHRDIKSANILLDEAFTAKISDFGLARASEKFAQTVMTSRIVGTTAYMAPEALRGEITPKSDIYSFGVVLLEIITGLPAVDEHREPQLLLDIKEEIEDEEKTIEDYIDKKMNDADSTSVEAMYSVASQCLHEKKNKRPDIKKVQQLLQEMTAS
Kind of test: IRAK4 enzymatic assay (ADP-Glo luminescence). In kind it is biochemical. Conditions: purified human recombinant His-TEV-IRAK4 (1-460), ATP 2 μM. An outline of the steps:
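Recombinant His-TEV-IRAK4 (1-460) at 0.3 μg/ml preincubated 15 min at RT with compounds (10 μM to 0.5 nM) in Hepes pH 7.0 buffer with MgCl2/MnCl2. Reaction started with 2 μM ATP and 300 nM STK1-biotin peptide, run 2 h at RT. ADP formed read by ADP-Glo luminescence.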

T1 sequence (P51617 194-712): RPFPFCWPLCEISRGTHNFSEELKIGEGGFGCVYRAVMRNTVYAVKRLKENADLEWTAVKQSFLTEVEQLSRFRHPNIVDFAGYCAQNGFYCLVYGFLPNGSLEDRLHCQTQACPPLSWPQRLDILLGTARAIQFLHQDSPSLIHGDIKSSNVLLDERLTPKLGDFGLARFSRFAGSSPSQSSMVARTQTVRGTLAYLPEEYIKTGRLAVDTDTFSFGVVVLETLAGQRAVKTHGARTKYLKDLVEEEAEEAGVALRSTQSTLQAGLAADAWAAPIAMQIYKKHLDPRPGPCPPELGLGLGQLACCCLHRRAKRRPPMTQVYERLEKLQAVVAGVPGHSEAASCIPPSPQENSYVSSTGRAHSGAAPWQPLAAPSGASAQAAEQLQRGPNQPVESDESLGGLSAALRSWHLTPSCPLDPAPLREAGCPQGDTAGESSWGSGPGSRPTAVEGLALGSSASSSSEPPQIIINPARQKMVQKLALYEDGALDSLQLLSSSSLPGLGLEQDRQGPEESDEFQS

As to `O=C(/N=c1\[nH]c2cc(N3C(=O)CN(C4CC4)CC34CC4)ccc2n1CCCO)c1cccc(C(F)F)c1` [Example 198, (E)-N-(5-(7-cyclopropyl-5-oxo-4,7-diazaspiro[2.5]octan-4-yl)-1-(3-hydroxypropyl)-1H-benzo[d]imidazol-2(3H)-ylidene)-3-(difluoromethyl)benzamide], the IC50 on IRAK1 and on IRAK4 was ≤ 100 nM throughout.
`COc1cc2c(cc1N1CCOCC1=O)[nH]/c(=N\C(=O)c1cccc(C#N)c1)n2CCCO` [Compound 74, (E)-3-cyano-N-(1-(3-hydroxypropyl)-6-methoxy-5-(3-oxomorpholino)-1H-benzo[d]imidazol-2(3H)-ylidene)benzamide]: the IC50 at IRAK1 and at IRAK4 was ≤ 100 nM throughout.
On to `N#Cc1cccc(C(=O)/N=c2\[nH]c3cc(N4CCOCC4=O)ccc3n2[C@H]2CC[C@H](O)CC2)c1` [Compound 27, trans-(E)-3-cyano-N-(1-(4-hydroxycyclohexyl)-5-(3-oxomorpholino)-1H-benzo[d]imidazol-2(3H)-ylidene)benzamide], for which the IC50 on IRAK1 and at IRAK4 was ≤ 100 nM throughout.
`O=C(/N=c1\[nH]c2cc(N3CCN(C4CC4)CC3=O)ccc2n1CCCO)c1cccc(C(F)F)c1` [Compound 182, (E)-N-(5-(4-cyclopropyl-2-oxopiperazin-1-yl)-1-(3-hydroxypropyl)-1H-benzo[d]imidazol-2(3H)-ylidene)-3-(difluoromethyl)benzamide]: the IC50 on IRAK1 and on IRAK4 was ≤ 100 nM in each case.
Turning to `O=C(/N=c1\[nH]c2cc(N3CCOCC3=O)ccc2n1CCCO)c1cccc(CO)c1` [Compound 21, (E)-3-(hydroxymethyl)-N-(1-(3-hydroxypropyl)-5-(3-oxomorpholino)-1H-benzo[d]imidazol-2(3H)-ylidene)benzamide], the figures for the IC50 at IRAK1 and at IRAK4 were 100 to 1000 nM and ≤ 100 nM, respectively.
`CCC(CCO)n1/c(=N/C(=O)c2cccc(C(F)F)c2)[nH]c2cc(N3CCOCC3=O)ccc21` (racemic) [Compound 125, rac-(E)-3-(difluoromethyl)-N-(1-(1-hydroxypentan-3-yl)-5-(3-oxomorpholino)-1H-benzo[d]imidazol-2(3H)-ylidene)benzamide]: the concentration for half-maximal inhibition (IC50) on IRAK1 is > 1000 nM; on IRAK4, ≤ 100 nM.
On to `N#Cc1cccc(C(=O)/N=c2\[nH]c3cc(N4CCOCC4=O)ccc3n2[C@H]2CC[C@@H](O)CC2)c1` [Compound 55, cis-(E)-3-cyano-N-(1-(4-hydroxycyclohexyl)-5-(3-oxomorpholino)-1H-benzo[d]imidazol-2(3H)-ylidene)benzamide], for which the IC50 on IRAK1 and on IRAK4 was ≤ 100 nM throughout.
For `O=C(/C=C1\Nc2cc(N3CCOCC3=O)ccc2N1CCCO)c1ccc2ccccc2n1` [Compound 149, (E)-4-(1-(3-hydroxypropyl)-2-(2-oxo-2-(quinolin-2-yl)ethylidene)-2,3-dihydro-1H-benzo[d]imidazol-5-yl)morpholin-3-one], the IC50 at IRAK1 and at IRAK4 was > 1000 nM throughout.
In the case of `CC1(C)OCCN(c2ccc3c(c2)[nH]/c(=N\C(=O)c2cccc(C(F)F)c2)n3CCCO)C1=O` [Example 222, (E)-3-(difluoromethyl)-N-(5-(2,2-dimethyl-3-oxomorpholino)-1-(3-hydroxypropyl)-1H-benzo[d]imidazol-2(3H)-ylidene)benzamide], the IC50 at IRAK1 was 100 to 1000 nM; on IRAK4, ≤ 100 nM.
Take `O=C(/N=c1\[nH]c2cc(N3CCOCC3=O)ccc2n1C1(CCO)CCCCC1)c1cccc(C(F)F)c1` [Compound 115, (E)-3-(difluoromethyl)-N-(1-(1-(2-hydroxyethyl)cyclohexyl)-5-(3-oxomorpholino)-1H-benzo[d]imidazol-2(3H)-ylidene)benzamide]: the IC50 was > 1000 nM on IRAK1 and 100 to 1000 nM on IRAK4.
In the same order, the values of `Cc1cc2c(cc1N1CCOCC1=O)[nH]/c(=N\C(=O)c1cccc(C(F)F)c1)n2CCCO` [Compound 69, (E)-3-(difluoromethyl)-N-(1-(3-hydroxypropyl)-6-methyl-5-(3-oxomorpholino)-1H-benzo[d]imidazol-2(3H)-ylidene)benzamide] are ≤ 100 nM and ≤ 100 nM.
In the same order, the values of `[2H]C([2H])([2H])Oc1cc2c(cc1N1CCCOC1=O)[nH]/c(=N\C(=O)c1cccc(C(F)F)c1)n2CCCO` [Example 205, (E)-3-(difluoromethyl)-N-(1-(3-hydroxypropyl)-6-(trideuteromethoxy)-5-(2-oxo-1,3-oxazinan-3-yl)-1H-benzo[d]imidazol-2(3H)-ylidene)benzamide] are ≤ 100 nM and ≤ 100 nM.
For the compound `O=C(/N=c1\[nH]c2cc(N3CCOCC3=O)c(Cl)cc2n1CCCO)c1cccc(C(F)F)c1` [Compound 142, (E)-N-(6-chloro-1-(3-hydroxypropyl)-5-(3-oxomorpholino)-1H-benzo[d]imidazol-2(3H)-ylidene)-3-(difluoromethyl)benzamide], the IC50 on IRAK1 was 100 to 1000 nM; on IRAK4, ≤ 100 nM.
For `CS(=O)(=O)c1cccc(C(=O)/N=c2\[nH]c3cc(N4CCOCC4=O)ccc3n2CCCCO)c1` [Compound 19, (E)-N-(1-(4-hydroxybutyl)-5-(3-oxomorpholino)-1H-benzo[d]imidazol-2(3H)-ylidene)-3-(methylsulfonyl)benzamide] the same measures were 100 to 1000 nM and ≤ 100 nM.

By IC50 is commonly meant the midpoint of a concentration-inhibition curve.

The values are drawn from patent publication US10059701B2 (Merck Patent GmbH, priority 2015, dated 2018).
